Measurements taken from patent US6346543B1, “Use of a taxoid to treat abnormal cell proliferation in the brain” (priority 1998, dated 2002).
Where “and” joins values, the source holds several entries; their conditions need not be identical. Equal entries are not always repeated.

Legend:
[1] = system: intracranially implanted human glioblastoma SF-295; assay: Antitumor activity against intracranially implanted SF-295 glioblastoma in NCr-nu mice (RP-38); assay type: in vivo; settings: for DAYS OF DEATH: individual animals
Description: Four studies were initiated to evaluate the response of U251 and SF-295 glioblastomas to treatment with product (Ia). In the two studies, U251 and SF-295 glioblastomas were initiated from intracranially implanted cells at a volume of 10^6 cells per mouse. The treatment schedule of the intracranially implanted U251 glioblastoma cells was iv, once daily, every sixth day for three treatments (q6d×3), beginning on day four post-implant. The treatment schedule of the intracranially implanted SF-295 glioblastoma cells was iv, once daily, every fourth day for three treatments (q4d×3), beginning on day two post-implant. For the intracranially implanted studies, the compounds were evaluated based on their ability to increase the life span of the animals. The positive control used for both of these tumor models was nitrosourea.
In these experiments, general DCTD, NCI techniques and procedures for in vivo efficacy studies were modified for special application (In Vivo Cancer Models, NIH Publication No. 84-2635, 1984). These studies were conducted in approved facilities (AAALAC Registration No. 000643, AALAS Membership No. 840723001, USDA Registration No. 64-R-001, OPPR, PHS, NIH, AWA, Assurance No. A3046-01). These facilities are ISO 9001 certified. The oversight committee was the Southern Research Institutional Animal Care and Use Committee; the protocol used was IACUC No. 96-8-50.
(§1) Product (Ia) was prepared in 5% ethanol, 5% tween 80, 90% D5W
Nitrosourea was prepared in 2% ethanol, 98% physiological saline.
(§2) Product (Ia) was administered in 0.4 ml/mouse based on a total body weight average.
(§3) Nitrosourea was administered 0.1 ml/10 g of body weight.
(§4) Any intracranially implanted animal that appeared to be moribund was euthanized for humane purposes. Since efficacy studies fall within this category of basic research, experiment termination was based on resultants that were determined to be optimal.
Six to eight week old athymic NCr-nu female mice were used for the intracranially implanted U251 trials. Six to eight week old athymic NCr-nu male mice were used for the intracranially implanted SF-295 trials.
As previously mentioned, this experiment was designed to evaluate the activity of product (Ia) against intracranially U251 and SF-295 glioblastomas in athymic MCr-nu mice. The dosages for product (Ia) were 30, 20 and 13.4 mg/kg/dose. For the two intracranially implanted experiments, cells were prepared at a concentration of 3.33×10^7 cells per ml of media and injected at a volume of 0.03 ml per mouse. The cells were injected into the cerebrum to the right of the midline with a 25 gauge, ⅜ inch, stainless steel needle. Cultured cells were used for the U251 experiment (RP-36). The treatment schedule was q6d×3, iv, beginning on day four, post-implant. A tumor brei, made from solid tumor, was used for the SF-295 experiment (RP-38). The treatment schedule was q4d×3, iv, beginning on day two, post-implant. Nitrosourea was given in each experiment for comparative purposes because of its known activity against CNS tumors. The dosages were 27, 18 and 12 mg/kg/dose and the treatment schedule was the same as the treatment schedule for product (Ia) in each experiment.

[2] = system: intracranially implanted human glioblastoma U251; assay: Antitumor activity against intracranially implanted U251 glioblastoma in NCr-nu mice (RP-36); assay type: in vivo; settings: for DAYS OF DEATH: individual animals
Procedure: The treatment schedule of the intracranially implanted U251 glioblastoma cells was iv, once daily, every sixth day for three treatments (q6d×3), beginning on day four post-implant. […] For the intracranially implanted studies, the compounds were evaluated based on their ability to increase the life span of the animals. The positive control used for both of these tumor models was nitrosourea.
The oversight committee was the Southern Research Institutional Animal Care and Use Committee; the protocol used was IACUC No. 96-8-50.
as §1, §2, §3, §4
Six to eight week old athymic NCr-nu female mice were used for the intracranially implanted U251 trials.
The cells were injected into the cerebrum to the right of the midline with a 25 gauge, ⅜ inch, stainless steel needle. Cultured cells were used for the U251 experiment (RP-36). The treatment schedule was q6d×3, iv, beginning on day four, post-implant. […] The treatment schedule was q4d×3, iv, beginning on day two, post-implant. Nitrosourea was given in each experiment for comparative purposes because of its known activity against CNS tumors.

[3] = 13.4 mg/kg/dose IV Q4D×3(2), listed as product (Ia)
[4] = 13.4 mg/kg/dose IV Q6D×3(4), listed as Product I(a)
[5] = 13.4 mg/kg/dose IV Q6D×3(4), listed as product (Ia)
[6] = 20.0 mg/kg/dose IV Q6D×3(4), listed as Product I(a)
[7] = 20.0 mg/kg/dose IV Q6D×3(4), listed as product (Ia)
[8] = 30.0 mg/kg/dose IV Q6D×3(4), listed as Product I(a)
[9] = 30.0 mg/kg/dose IV Q6D×3(4), listed as product (Ia)

SMILES: CO[C@H]1C(=O)[C@]2(C)[C@@H](OC)C[C@H]3OC[C@@]3(OC(C)=O)[C@H]2[C@H](OC(=O)c2ccccc2)[C@]2(O)C[C@H](OC(=O)[C@H](O)[C@@H](NC(=O)OC(C)(C)C)c3ccccc3)C(C)=C1C2(C)C [Product (Ia), 4α-acetoxy-2α-benzoyloxy-5β, 20-epoxy-1β-hydroxy-7β, 10β-dimethoxy-9-oxo-11-taxen-13α-yl (2R,3S)-3 tert-butoxycarbonylamino-2-hydroxy-3-phenylpropionate]
- 68 DAY SURV./TOTAL ([1]; 13.4 mg/kg/dose IV Q4D×3(2)): 1/10
- % ILS ([1]; 13.4 mg/kg/dose IV Q4D×3(2)): +81%
- MEDIAN DAY OF DEATH ([1]; 13.4 mg/kg/dose IV Q4D×3(2)): 29.0 days
- MEAN ANIMAL WEIGHT ([1]; 13.4 mg/kg/dose IV Q4D×3(2), day 2): 25 GRAMS
- MEAN ANIMAL WEIGHT ([1]; 13.4 mg/kg/dose IV Q4D×3(2), day 5): 24 GRAMS
- MEAN ANIMAL WEIGHT ([1]; 13.4 mg/kg/dose IV Q4D×3(2), day 8): 23 GRAMS
- MEAN ANIMAL WEIGHT ([1]; 13.4 mg/kg/dose IV Q4D×3(2), day 13): 22 GRAMS
- MEAN ANIMAL WEIGHT ([1]; 13.4 mg/kg/dose IV Q4D×3(2), day 15): 20 GRAMS
- MEAN ANIMAL WEIGHT ([1]; 13.4 mg/kg/dose IV Q4D×3(2), day 19): 21 GRAMS
- MEAN ANIMAL WEIGHT ([1]; 13.4 mg/kg/dose IV Q4D×3(2), day 22): 22 GRAMS
- MEAN ANIMAL WEIGHT ([1]; 13.4 mg/kg/dose IV Q4D×3(2), day 26): 21 GRAMS
- MEAN ANIMAL WEIGHT ([1]; 13.4 mg/kg/dose IV Q4D×3(2), day 29): 22 GRAMS
- MEAN ANIMAL WEIGHT ([1]; 13.4 mg/kg/dose IV Q4D×3(2), day 33): 22 GRAMS
- MEAN ANIMAL WEIGHT ([1]; 13.4 mg/kg/dose IV Q4D×3(2), day 37): 26 GRAMS
- MEAN ANIMAL WEIGHT ([1]; 13.4 mg/kg/dose IV Q4D×3(2), day 40): 22 GRAMS
- MEAN ANIMAL WEIGHT ([1]; 13.4 mg/kg/dose IV Q4D×3(2), day 43): 27 GRAMS
- DAYS OF DEATH ([1]; 13.4 mg/kg/dose IV Q4D×3(2)): 34 day and 41 day and 25 day (2×) and 29 day (3×) and 30 day and 32 day
- 68 DAY SURV./TOTAL [1, 3]: one 68-day survivor out of ten animals
- % ILS [1, 3]: 81%
- mean weight loss through the treatment period ([1]; 20 mg/kg dose iv q4d×3): 6 g
- 68 DAY SURV./TOTAL ([1]; 20.0 mg/kg/dose IV Q4D×3(2)): 0/10
- % ILS ([1]; 20.0 mg/kg/dose IV Q4D×3(2)): +94%
- MEDIAN DAY OF DEATH ([1]; 20.0 mg/kg/dose IV Q4D×3(2)): 31.0 days
- MEAN ANIMAL WEIGHT ([1]; 20.0 mg/kg/dose IV Q4D×3(2), day 2): 25 GRAMS
- MEAN ANIMAL WEIGHT ([1]; 20.0 mg/kg/dose IV Q4D×3(2), day 5): 24 GRAMS
- MEAN ANIMAL WEIGHT ([1]; 20.0 mg/kg/dose IV Q4D×3(2), day 8): 21 GRAMS
- MEAN ANIMAL WEIGHT ([1]; 20.0 mg/kg/dose IV Q4D×3(2), day 13): 19 GRAMS
- MEAN ANIMAL WEIGHT ([1]; 20.0 mg/kg/dose IV Q4D×3(2), day 15): 18 GRAMS
- MEAN ANIMAL WEIGHT ([1]; 20.0 mg/kg/dose IV Q4D×3(2), day 19): 19 GRAMS
- MEAN ANIMAL WEIGHT ([1]; 20.0 mg/kg/dose IV Q4D×3(2), day 22): 21 GRAMS
- MEAN ANIMAL WEIGHT ([1]; 20.0 mg/kg/dose IV Q4D×3(2), day 26): 22 GRAMS
- MEAN ANIMAL WEIGHT ([1]; 20.0 mg/kg/dose IV Q4D×3(2), day 29): 19 GRAMS
- MEAN ANIMAL WEIGHT ([1]; 20.0 mg/kg/dose IV Q4D×3(2), day 33): 23 GRAMS
- MEAN ANIMAL WEIGHT ([1]; 20.0 mg/kg/dose IV Q4D×3(2), day 37): 29 GRAMS
- MEAN ANIMAL WEIGHT ([1]; 20.0 mg/kg/dose IV Q4D×3(2), day 40): 29 GRAMS
- MEAN ANIMAL WEIGHT ([1]; 20.0 mg/kg/dose IV Q4D×3(2), day 43): 29 GRAMS
- DAYS OF DEATH ([1]; 20.0 mg/kg/dose IV Q4D×3(2)): 33 day (2×) and 37 day and 54 day and 13 day (2×) and 16 day and 31 day (3×)
- % ILS ([1]; 20.0 mg/kg/dose IV Q4D×3(2), listed as product (Ia)): 94%
- mean weight loss through the treatment period ([1]; 30 mg/kg dose iv q4d×3): 7 g
- 68 DAY SURV./TOTAL ([1]; 30.0 mg/kg/dose IV Q4D×3(2)): 0/10
- % ILS ([1]; 30.0 mg/kg/dose IV Q4D×3(2)): −9%
- MEDIAN DAY OF DEATH ([1]; 30.0 mg/kg/dose IV Q4D×3(2)): 14.5 days
- MEAN ANIMAL WEIGHT ([1]; 30.0 mg/kg/dose IV Q4D×3(2), day 2): 25 GRAMS
- MEAN ANIMAL WEIGHT ([1]; 30.0 mg/kg/dose IV Q4D×3(2), day 5): 23 GRAMS
- MEAN ANIMAL WEIGHT ([1]; 30.0 mg/kg/dose IV Q4D×3(2), day 8): 18 GRAMS
- MEAN ANIMAL WEIGHT ([1]; 30.0 mg/kg/dose IV Q4D×3(2), day 13): 18 GRAMS
- MEAN ANIMAL WEIGHT ([1]; 30.0 mg/kg/dose IV Q4D×3(2), day 15): 19 GRAMS
- MEAN ANIMAL WEIGHT ([1]; 30.0 mg/kg/dose IV Q4D×3(2), day 19): 19 GRAMS
- MEAN ANIMAL WEIGHT ([1]; 30.0 mg/kg/dose IV Q4D×3(2), day 22): 21 GRAMS
- MEAN ANIMAL WEIGHT ([1]; 30.0 mg/kg/dose IV Q4D×3(2), day 26): 21 GRAMS
- MEAN ANIMAL WEIGHT ([1]; 30.0 mg/kg/dose IV Q4D×3(2), day 29): 19 GRAMS
- MEAN ANIMAL WEIGHT ([1]; 30.0 mg/kg/dose IV Q4D×3(2), day 33): 20 GRAMS
- MEAN ANIMAL WEIGHT ([1]; 30.0 mg/kg/dose IV Q4D×3(2), day 37): 18 GRAMS
- MEAN ANIMAL WEIGHT ([1]; 30.0 mg/kg/dose IV Q4D×3(2), day 40): 21 GRAMS
- MEAN ANIMAL WEIGHT ([1]; 30.0 mg/kg/dose IV Q4D×3(2), day 43): 17 GRAMS
- DAYS OF DEATH ([1]; 30.0 mg/kg/dose IV Q4D×3(2)): 40 day and 41 day and 47 day and 11 day and 13 day (2×) and 14 day (2×) and 15 day and 30 day
- activity against intracranially implanted SF-295 glioblastoma ([1]; iv q4d×3): quite active
- MTD ([1]; iv q4d×3, SF-295 experiment RP-38): 13.4 mg/kg/dose
- MEDIAN DAY OF DEATH ([2]; 13.4 mg/kg/dose IV Q6D×3(4)): 83.0 days
- DAYS OF DEATH ([2]; 13.4 mg/kg/dose IV Q6D×3(4)): 69 day (2×) and 83 day (4×) and 122 day
- 122-DAY SURV./TOTAL [2, 4]: 3/10
- % ILS [2, 4]: +144%
- 122-DAY SURV./TOTAL [2, 5]: three of ten
- % ILS [2, 5]: 144%
- MEDIAN DAY OF DEATH ([2]; 20.0 mg/kg/dose IV Q6D×3(4)): 103.0 days
- DAYS OF DEATH ([2]; 20.0 mg/kg/dose IV Q6D×3(4)): 58 day and 98 day and 100 day and 106 day (2×) and 122 day
- 122-DAY SURV./TOTAL [2, 6]: 4/10
- % ILS [2, 6]: +202%
- 122-DAY SURV./TOTAL [2, 7]: four of ten
- % ILS [2, 7]: 202%
- MEDIAN DAY OF DEATH ([2]; 30.0 mg/kg/dose IV Q6D×3(4)): 94.0 days
- DAYS OF DEATH ([2]; 30.0 mg/kg/dose IV Q6D×3(4)): 21 days and 34 days and 94 days and 98 days and 103 days
- 122-DAY SURV./TOTAL [2, 8]: 5/10
- % ILS [2, 8]: +176%
- 122-DAY SURV./TOTAL [2, 9]: five of ten
- % ILS [2, 9]: 176%
- activity against intracranially implanted U251 glioblastoma ([2]; iv q6d×3): quite active
- MTD ([2]; iv q6d×3, U251 experiment RP-36): 20 mg/kg/dose
